Laboratory results from patent publication US9771353B2, “Kinase inhibitors based upon N-alkyl pyrazoles” (RESPIVERT LIMITED, priority 2013, dated 2017).

Legend:
p38 MAPKα = p38 MAPKα (Homo sapiens (Human), UniProt Q16539); test: p38 MAPKα enzyme inhibition (FRET, Z-LYTE), Method 2; format: biochemical
c-Src = c-Src (Homo sapiens (Human), UniProt P12931); test: c-Src enzyme inhibition (FRET, Z-LYTE); format: biochemical
Description: (§1) The enzyme inhibitory activities of compounds disclosed herein are determined by FRET using synthetic peptides labelled with both donor and acceptor fluorophores (Z-LYTE, Invitrogen Ltd., Paisley, UK).
(§2) The relevant enzyme (3000 ng/mL or 2000 ng/mL respectively, 2.5 μL) is incubated with the test compound (either 4 μg/mL, 0.4 μg/mL, 0.04 μg/mL, or 0.004 μg/mL, 2.5 μL each) for 2 hr at RT. The FRET peptides (8 μM, 2.5 μL), and appropriate ATP solutions (2.5 μL, 800 μM for c-Src, and 60 μM ATP for Syk) are then added to the enzymes/compound mixtures and incubated for 1 hr. Development reagent (protease, 5 μL) is added for 1 hr prior to detection in a fluorescence microplate reader (Varioskan® Flash, ThermoFisher Scientific).
(§3) In all cases, the site-specific protease cleaves non-phosphorylated peptide only and eliminates the FRET signal. Phosphorylation levels of each reaction are calculated using the ratio of coumarin emission (donor) over fluorescein emission (acceptor), for which high ratios indicate high phosphorylation and low ratios indicate low phosphorylation levels.

Syk = Syk (Homo sapiens (Human), UniProt P43405); test: Syk enzyme inhibition (FRET, Z-LYTE); format: biochemical
Description: as §1
as §2, with “The inhibitory activities of compounds of the invention against c-Src and Syk enzymes (Invitrogen), are evaluated in a similar fashion to that described hereinabove. The relevant” for “The relevant”
as §3

GSK3α = GSK3α (Homo sapiens (Human), UniProt P49840); test: GSK 3α enzyme inhibition (FRET, Z-LYTE), Method 2; format: biochemical
Chain of GSK3α (P49840 whole entry): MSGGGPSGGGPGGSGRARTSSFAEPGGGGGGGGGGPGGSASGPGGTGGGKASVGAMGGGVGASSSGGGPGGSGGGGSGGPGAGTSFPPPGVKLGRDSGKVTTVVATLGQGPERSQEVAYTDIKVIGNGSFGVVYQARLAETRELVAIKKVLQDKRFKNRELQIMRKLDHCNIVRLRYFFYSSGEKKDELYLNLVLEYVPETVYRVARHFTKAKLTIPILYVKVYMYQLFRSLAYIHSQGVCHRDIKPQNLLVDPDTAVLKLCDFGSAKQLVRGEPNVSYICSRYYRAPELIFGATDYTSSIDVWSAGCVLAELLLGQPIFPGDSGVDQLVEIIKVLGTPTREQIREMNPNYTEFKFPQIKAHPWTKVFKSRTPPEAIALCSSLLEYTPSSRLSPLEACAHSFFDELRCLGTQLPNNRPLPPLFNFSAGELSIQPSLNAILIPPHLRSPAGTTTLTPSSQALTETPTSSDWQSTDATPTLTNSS
Description: as §1
The inhibitory activities of compounds of the invention against the GSK 3α enzyme isoform (Invitrogen), are evaluated by determining the level of activation/phosphorylation of the target peptide. The GSK3-α protein (500 ng/mL, 2.5 μL) is mixed with the test compound (2.5 μL at either 4 μg/mL, 0.4 μg/mL, 0.04 μg/mL, or 0.004 μg/mL) for 2 hr at RT. The FRET peptide (8 μM, 2.5 μL), which is a phosphorylation target for GSK3α, and ATP (40 μM, 2.5 μL) are then added to the enzyme/compound mixture and the resulting mixture incubated for 1 hr. Development reagent (protease, 5 μL) is added for 1 hr prior to detection in a fluorescence microplate reader (Varioskan® Flash, ThermoFisher Scientific).
as §3
This method follows the same steps as Method 1 above, but utilises a shorter period of mixing of the test compound (105 minutes instead of 2 hours) with the GSK3-α protein.

PBMCs [1] = test: LPS-induced TNFα/IL-8 release in PBMC cells, assay (b); format: cell-based; conditions: Homo sapiens, LPS-stimulated PBMCs, read-out: IC50 Values for Inhibition of Cytokine Release, PBMCs IL-8
Description: Peripheral blood mononuclear cells (PBMCs) from healthy subjects are separated from whole blood using a density gradient (Lymphoprep, Axis-Shield Healthcare). The PBMCs are seeded in 96 well plates and treated with compounds at the desired concentration for 2 hours before addition of 1 ng/mL LPS (Escherichia Coli 0111:B4 from Sigma Aldrich) for 24 hours under normal tissue culture conditions (37° C., 5% CO2). The supernatant is harvested for determination of IL-8 and TNFα concentrations by sandwich ELISA (Duo-set, R&D systems) and read on the fluorescence microplate reader (Varioskan® Flash, ThermoFisher Scientific).

PBMCs [2] = test: IL-2 and IFN gamma release in CD3/CD28 stimulated PBMC cells, assay (c); format: cell-based; conditions: Homo sapiens, IFNγ, read-out: IC50 Values for Inhibition of Cytokine Release, PBMCs IFNγ
Description: PBMCs from healthy subjects are separated from whole blood using a density gradient (Lymphoprep, Axis-Shield Healthcare). Cells are added to a 96 well plate pre-coated with a mixture of CD3/CD28 monoclonal antibodies (0.3 μg/mL eBioscience and 3 μg/mL BD Pharmingen respectively). Compound at the desired concentration is then added to the wells and the plate left for 3 days under normal tissue culture conditions. Supernatants are harvested and IL-2 and IFN gamma release determined by Sandwich ELISA (Duo-set, R&D System). The IC50 is determined from the dose response curve.

d-U937 cells = test: Accumulation of β catenin in d-U937 cells, assay (m); format: cell-based, human
Description: U937 cells, a human monocytic cell line, are differentiated into macrophage-type cells by incubation with PMA; (100 ng/mL) for between 48 to 72 hr. The cells are then incubated with either final concentrations of test compound or vehicle for 18 hr. The induction of β-catenin by the test compounds is stopped by replacing the media with 4% formaldehyde solution. Endogenous peroxide activity is neutralised by incubating with quenching buffer (100 μL, 0.1% sodium azide, 1% H2O2 in PBS with 0.05% Tween-20) for 20 min. The cells are washed with washing buffer (200 μL; PBS containing 0.05% Tween-20) and incubated with blocking solution (200 μL; 5% milk in PBS) for 1 hr, re-washed with washing buffer (200 μL) and then incubated overnight with anti-β-catenin antibody solution (50 μL) in 1% BSA/PBS (BD, Oxford, UK).
After washing with washing buffer (3×200 μL; PBS containing 0.05% Tween-20), cells are incubated with an HRP-conjugated secondary antibody solution (100 μL) in 1% BSA/PBS (Dako, Cambridge, UK) and the resultant signal is determined colourimetrically (OD: 450 nm with a reference wavelength of 655 nm) using TMB substrate (50 μL; R&D Systems, Abingdon, UK). This reaction is stopped by addition of 1N H2SO4 solution (50 μL). Cells are then washed with washing buffer and 2% crystal violet solution (50 μL) is applied for 30 min. After washing with washing buffer (3×200 μL), 1% SDS (100 μL) is added to each well and the plates are shaken lightly for 1 hr prior to measuring the absorbance at 595 nm (Varioskan® Flash, Thermo-Fisher Scientific).
The measured OD450-655 readings are corrected for cell number by dividing the OD450-655 by the OD595 readings. The percentage induction for each well is calculated relative to vehicle, and the ratio of induction normalised in comparison with the induction produced by a standard control comprising of N-(4-(4-(3-(3-tert-butyl-1-p-tolyl-1H-pyrazol-5-yl)ureido)naphthalen-1-yloxy)pyridin-2-yl)-2-methoxyacetamide (1 μg/mL) which is defined as 100%.

HT29 cells = test: IL-1β-induced IL-8 release in HT29 cells, assay (d); format: cell-based; conditions: Homo sapiens, HT-29, IL-1β-stimulated HT29 cells, read-out: IC50 Values for Inhibition of Cytokine Release, HT29 cells IL-8
Description: HT29 cells, a human colon adenocarcinoma cell line, are plated in a 96 well plate (24 hrs) and pre-treated with compounds at the desired concentration for 2 hours before addition of 5 ng/mL of IL-1β (Abcam) for 24 hours. Supernatants are harvested for IL-8 quantification by Sandwich ELISA (Duo-set, R&D System). The IC50 is determined from the dose response curve.

[3] = 1 μg/mL test compound, normalised to reference N-(4-(4-(3-(3-tert-butyl-1-p-tolyl-1H-pyrazol-5-yl)ureido)naphthalen-1-yloxy)pyridin-2-yl)-2-methoxyacetamide
[4] = 5 μg/mL test compound, normalised to the same reference compound
[5] = 10 μg/mL test compound, normalised to the same reference compound

Chain of c-Src (P12931 whole entry, looked up): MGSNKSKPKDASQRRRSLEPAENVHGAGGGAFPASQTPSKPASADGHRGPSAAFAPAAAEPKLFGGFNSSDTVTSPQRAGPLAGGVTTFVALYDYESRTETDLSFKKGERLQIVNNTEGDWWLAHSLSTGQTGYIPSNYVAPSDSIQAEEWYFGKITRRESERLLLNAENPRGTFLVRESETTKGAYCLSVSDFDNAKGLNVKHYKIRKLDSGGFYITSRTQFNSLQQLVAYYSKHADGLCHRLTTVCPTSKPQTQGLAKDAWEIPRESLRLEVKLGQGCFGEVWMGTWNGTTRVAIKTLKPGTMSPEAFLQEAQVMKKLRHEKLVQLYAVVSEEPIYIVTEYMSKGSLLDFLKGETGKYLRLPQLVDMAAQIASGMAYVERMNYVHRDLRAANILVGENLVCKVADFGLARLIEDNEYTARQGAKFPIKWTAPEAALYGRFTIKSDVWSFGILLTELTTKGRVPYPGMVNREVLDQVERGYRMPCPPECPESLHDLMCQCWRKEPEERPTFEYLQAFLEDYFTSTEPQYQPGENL
Chain of p38 MAPKα (Q16539 whole entry): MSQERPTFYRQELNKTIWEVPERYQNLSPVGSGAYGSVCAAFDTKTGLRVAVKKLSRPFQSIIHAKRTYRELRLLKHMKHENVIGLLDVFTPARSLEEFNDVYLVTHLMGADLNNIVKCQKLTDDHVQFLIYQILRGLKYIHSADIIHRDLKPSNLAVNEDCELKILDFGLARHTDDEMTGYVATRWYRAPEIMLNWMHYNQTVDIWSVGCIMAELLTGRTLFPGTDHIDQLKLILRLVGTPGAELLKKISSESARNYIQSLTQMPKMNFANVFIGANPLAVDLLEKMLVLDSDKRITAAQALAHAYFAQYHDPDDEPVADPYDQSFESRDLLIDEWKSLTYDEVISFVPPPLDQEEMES

Row | Compound | IC50 (p38 MAPKα) [nM] | IC50 (c-Src) [nM] | IC50 (Syk) [nM] | IC50 (GSK3α) [µM] | IC50 (PBMCs [1]) [nM] | IC50 (PBMCs [2]) [nM] | % β-catenin induction (d-U937 cells; [3]) [%] | % β-catenin induction (d-U937 cells; [4]) [%] | % β-catenin induction (d-U937 cells; [5]) [%] | IC50 (HT29 cells) [nM]
1 | C#Cc1cc(Nc2nccc(Oc3ccc(NC(=O)Nc4cc(C(C)(C)C)nn4CC)c4ccccc34)n2)cc(C(=O)NCCOCCOCCOC)c1 [Example 8, 3-((4-((4-(3-(3-(tert-Butyl)-1-ethyl-1H-pyrazol-5-yl)ureido)naphthalen-1-yl)oxy)pyrimidin-2-yl)amino)-5-ethynyl-N-(2-(2-(2-methoxyethoxy)ethoxy)ethyl)benzamide] | 20 | 5 | > 1000 | 3.07 | 4.8 | 13.2 | 2.5 | 4 | 3.5 | –
2 | C#Cc1cc(Nc2cc(Oc3ccc(NC(=O)Nc4cc(C(C)(C)C)nn4C)c4ccccc34)ccn2)cc(C(=O)NCCOCCOCCOC)c1 [Example 9, 3-((4-((4-(3-(3-(tert-Butyl)-1-methyl-1H-pyrazol-5-yl)ureido)naphthalen-1-yl)oxy)pyridin-2-yl)amino)-5-ethynyl-N-(2-(2-(2-methoxyethoxy)ethoxy)ethyl)benzamide] | 66 | 53 | > 1000 | 12.4 | 3.8 | 33.7 | −2.5 | −1 | 4.5 | 18
3 | C#Cc1cc(Nc2nccc(Oc3ccc(NC(=O)Nc4cc(C(C)C)nn4C)c4ccccc34)n2)cc(C(=O)NCCN2CCOCC2)c1 [Example 10, 3-Ethynyl-5-((4-((4-(3-(3-isopropyl-1-methyl-1H-pyrazol-5-yl)ureido)naphthalen-1-yl)oxy)pyrimidin-2-yl)amino)-N-(2-morpholinoethyl)benzamide] | 9 | 8 | 819 | 14.1 | 15.6 | – | – | – | – | 270
4 | C#Cc1cc(Nc2nccc(Oc3ccc(NC(=O)Nc4cc(C(C)C)nn4C)c4ccccc34)n2)cc(C(=O)NCCOCCOCCOC)c1 [Example 11, 3-Ethynyl-5-((4-((4-(3-(3-isopropyl-1-methyl-1H-pyrazol-5-yl)ureido)naphthalen-1-yl)oxy)pyrimidin-2-yl)amino)-N-(2-(2-(2-methoxyethoxy)ethoxy)ethyl)benzamide] | 13 | 9 | > 1000 | 9.52 | 26.1 | – | – | – | – | > 1000
